Source: US20240285552A1 (priority 2020, published 2024)
“And” between values parts separate entries of the source, which are not always exact repeats. Equal values may be shown once. “Also recorded” adds a separate entry of the source. Where a name gives a salt, the structure may show the parent alone. Read-outs that look alike come from different tables or passages of the source.

Assays:
[1] = molecular target: T1, recombinant human ACE2 (rhACE2) (Homo sapiens, UniProt Q9BYF1); test: ACE2 exopeptidase inhibitor screening assay (fluorogenic substrate), AMB and BHH; type: biochemical; conditions: for inhibition at 0.1 µM / inhibition at 1 µM / inhibition at 10 µM / inhibition at 50 µM / inhibition at 100 µM / inhibition at 250 µM / inhibition at 500 µM: read-out: ACE2 Exopeptidase Activity: Percent Inhibition; for effect on exopeptidase activity of rhACE2: tested 0.1 to 500 μM
T1 construct: purchased BPS Bioscience 79923
Description: ACE2 Inhibitor Screening Assay. An ACE2 exopeptidase Inhibitor screening assay kit with the fluorogenic substrate (Catalogue #79923) was purchased from BPS Bioscience (San Diego, CA) and modified to measure the exopeptidase activity of ACE2 in the presence and absence of inhibitors (BPSBioscience, 2022). Following the manufacturer's directions, the fluorescence assay was carried out in a 96-well black flat-bottom plate with a final reaction volume of 50 μL. 50 mM stock solutions of BHH and AMB in 100% DMSO were prepared. Compounds were serially diluted in DMSO as follows: 500, 250, 100, 50, 10, 1, 0.1 μM. All experiments were done in triplicates and repeated twice. A positive control of enzyme treated with vehicle alone (2 percent DMSO) and a blank control with no enzyme were included on each plate.
Each reaction had 24 μL of purified recombinant human ACE2 protein (0.42 ng/L) in ACE2 buffer, 1 μL of the compound at different concentrations, and 25 μL ACE2 fluorogenic substrate. The final volume of the reaction was 50 μL. The reaction mixtures were incubated for 1 hr at room temperature (22° C.) and protected from light. After that, the fluorescence intensities (λExcitation=535 nm, λEmission=595 nm) were measured using a Spectramax iD3 multimode plate reader. The background hydrolysis was subtracted, and the data were fitted to a four-parameter logistic (variable slope) equation using GraphPad prism software 9.1.

[2] = molecular target: T2, ACE1 (Homo sapiens, UniProt P12821); test: ACE1 activity assay (colorimetric); type: biochemical; conditions: for effect on exopeptidase activity of ACE: hydrochloride
T2 construct: purchased Sigma-Aldrich MAK422
Description: ACE1 Activity Assay. ACE1 Inhibitor Screening Kit (Cat #MAK422) was purchased from Sigma-Aldrich (St. Louis, MO) and adapted to determine the effect of BHH and AMB on the enzymatic activity of ACE (Aldrich, 2022). The in vitro colorimetric assay was performed in a transparent flat-bottom 96-well plate. 50 mm and 10 mm solutions of Captropil, a known ACE1 inhibitor were used as a positive inhibitor control. Stock solutions of the compounds were prepared in 100% Dimethyl sulfoxide (DMSO) and further serially diluted in DMSO as follows: 500, 100, 50,10,5,1 and 0.5 μm for AMB and the positive control Captropil. All experiments were performed in quadruplicates. Each plate contained positive controls (1% DMSO) and blank controls with no ACE1 enzyme. Specifically, 2.5 μl of serially diluted compounds were pre-incubated with 2 μl of ACE1 protein diluted in 38 μl of 1× assay diluent buffer for about 15 mins, at room temperature (22° C.). 157.5 μl of 1×ACE1 assay buffer (197.5 μl for −ve control) was added into the 96 well plates. The solution was mixed well and incubated at 37° C. for 15-20 minutes, protected from light. After that, 40 μl of the substrate was added to each well and mixed well. The absorbance was measured immediately at 345 nm (A345) in kinetic mode for 60 minutes.

[3] = test system: ACE1; test: Western blotting, ACE1 expression in A549 cells; type: cell-based, human; conditions: 50 μm, 24 hrs and 48 hrs
Description: (§1) Western blotting. A549 “Lung” cells (RRID:CVCL_COQ5) were harvested in a radioimmuno precipitation assay (RIPA) buffer (Tris 10 mM pH 7.4, containing 140 mM NaCl, 1 mM EDTA, 1 mM NaF, 0.10% SDS, 0.50% sodium deoxycholate 0.1% NP-40, 1% Triton X-100) in the presence of protease inhibitors (Thermo Fisher) at 24 hrs. and 48 hrs. Protein concentration was determined by was determined using bicinchoninic acid with bovine serum albumin as a standard (Thermo Fisher). Equal amounts of protein were loaded and separated by SDS-PAGE using 10% pre-casted gels (Biorad). Proteins were electroblotted onto nitrocellulose membranes (Bio-Rad). The blots were blocked using 5% (w/v) milk in Tris-buffered saline containing 0.5% (v/v) Tween-20. The membranes were then incubated with different antibodies. Antibodies directed against ACE1 (ab28311) and ACE2 (ab108209) were used and the GAPDH antibody was used as loading control for cell lysates. Primary and secondary antibodies were diluted in Tris-buffered saline containing (0.5% v/v) Tween-20 (TBS-T) supplemented with 5% milk. The bands were visualized by incubating the blots with enhanced chemiluminescence reagent (ECL, Biorad) and visualized using chemidoc. Band intensities were quantified by using imagelab software Biorad.

[4] = test system: ACE2; test: Western blotting, ACE2 expression in A549 cells; type: cell-based, human; conditions: 50 μm, 24 hrs and 48 hrs
Description: as §1

[5] = test system: Vero E6 cells; conditions: Vero E6; for percent minimum viability: at 30 μM, Example B
[6] = test system: SARS-CoV-2 USA_WA1/2020; conditions: hamster; for SARS-CoV-2 genome load, N2 gRNA, lungs / SARS-CoV-2 genome load, N2 gRNA, trachea / active replication load higher than Group 3, E sgRNA, lungs / active replication load, E sgRNA, lungs / active replication load, E sgRNA, nasal turbinate / active replication load, E sgRNA, trachea / genome load higher than Group 3, N2 gRNA, lungs / replication load higher than Group 3, E sgRNA, trachea / viral load higher than Group 3, N2 gRNA, trachea: Day 4; for serum IL-6 levels versus Group 3: Day 4, ELISA, P<0.05; for serum TNF-α versus Group 3: Day −1, Day 2 (P<0.05), Day 4 (P<0.001); for serum IL-10 levels between groups: Days −1, 2, 4; for incidence and severity of microscopic lesions versus vehicle control: lung histopathology; for lung viral load by TCID50 assay versus vehicle control: lung samples Day 4; for SARS-CoV-2 genome load, N2 gRNA, nasal turbinate / gross lesions in the lung: necropsy Day 4; for Peak viral load, N2 gRNA, pharyngeal swabs / Peak viral replication load, E sgRNA, pharyngeal swabs: peak Day 2 (AMB), Day 1 (BHH); for Peak viral replication load, E sgRNA, rectal swabs: peak Day 1 (AMB), Day 2 (BHH); for Peak viral load, N2 gRNA, rectal swabs: peak on Day 2
[7] = in vitro; conditions: African green monkey
[8] = 50% cytotoxic concentration (CC50), Vero E6, 72 hours, Examples A and B, highest concentration 30 μM
[9] = Cytotoxicity CC50, Vero E6, 72 hours, Example C (Table 4)

T1 sequence (Q9BYF1 18-805): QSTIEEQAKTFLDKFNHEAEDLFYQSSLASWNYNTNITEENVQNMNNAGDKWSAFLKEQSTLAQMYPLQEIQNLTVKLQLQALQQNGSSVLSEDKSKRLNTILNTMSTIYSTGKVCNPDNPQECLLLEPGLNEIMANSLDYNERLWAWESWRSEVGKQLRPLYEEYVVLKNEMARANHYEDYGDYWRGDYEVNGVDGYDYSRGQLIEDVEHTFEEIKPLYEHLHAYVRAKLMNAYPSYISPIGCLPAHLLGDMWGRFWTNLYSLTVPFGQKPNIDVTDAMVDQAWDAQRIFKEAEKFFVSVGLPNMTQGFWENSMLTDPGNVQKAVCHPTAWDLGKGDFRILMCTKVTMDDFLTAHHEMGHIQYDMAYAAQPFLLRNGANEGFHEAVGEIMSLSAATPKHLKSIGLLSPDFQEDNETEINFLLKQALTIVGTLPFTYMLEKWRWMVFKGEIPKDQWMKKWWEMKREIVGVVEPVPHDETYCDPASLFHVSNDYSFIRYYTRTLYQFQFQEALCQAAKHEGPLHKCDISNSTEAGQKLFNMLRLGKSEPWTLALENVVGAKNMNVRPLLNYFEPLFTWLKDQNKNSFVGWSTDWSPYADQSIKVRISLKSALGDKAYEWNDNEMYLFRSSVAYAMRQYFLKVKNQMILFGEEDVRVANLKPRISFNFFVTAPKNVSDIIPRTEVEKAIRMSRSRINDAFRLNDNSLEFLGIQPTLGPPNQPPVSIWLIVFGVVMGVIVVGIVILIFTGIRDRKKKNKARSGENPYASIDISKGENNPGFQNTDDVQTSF
T2 sequence (P12821 30-1306): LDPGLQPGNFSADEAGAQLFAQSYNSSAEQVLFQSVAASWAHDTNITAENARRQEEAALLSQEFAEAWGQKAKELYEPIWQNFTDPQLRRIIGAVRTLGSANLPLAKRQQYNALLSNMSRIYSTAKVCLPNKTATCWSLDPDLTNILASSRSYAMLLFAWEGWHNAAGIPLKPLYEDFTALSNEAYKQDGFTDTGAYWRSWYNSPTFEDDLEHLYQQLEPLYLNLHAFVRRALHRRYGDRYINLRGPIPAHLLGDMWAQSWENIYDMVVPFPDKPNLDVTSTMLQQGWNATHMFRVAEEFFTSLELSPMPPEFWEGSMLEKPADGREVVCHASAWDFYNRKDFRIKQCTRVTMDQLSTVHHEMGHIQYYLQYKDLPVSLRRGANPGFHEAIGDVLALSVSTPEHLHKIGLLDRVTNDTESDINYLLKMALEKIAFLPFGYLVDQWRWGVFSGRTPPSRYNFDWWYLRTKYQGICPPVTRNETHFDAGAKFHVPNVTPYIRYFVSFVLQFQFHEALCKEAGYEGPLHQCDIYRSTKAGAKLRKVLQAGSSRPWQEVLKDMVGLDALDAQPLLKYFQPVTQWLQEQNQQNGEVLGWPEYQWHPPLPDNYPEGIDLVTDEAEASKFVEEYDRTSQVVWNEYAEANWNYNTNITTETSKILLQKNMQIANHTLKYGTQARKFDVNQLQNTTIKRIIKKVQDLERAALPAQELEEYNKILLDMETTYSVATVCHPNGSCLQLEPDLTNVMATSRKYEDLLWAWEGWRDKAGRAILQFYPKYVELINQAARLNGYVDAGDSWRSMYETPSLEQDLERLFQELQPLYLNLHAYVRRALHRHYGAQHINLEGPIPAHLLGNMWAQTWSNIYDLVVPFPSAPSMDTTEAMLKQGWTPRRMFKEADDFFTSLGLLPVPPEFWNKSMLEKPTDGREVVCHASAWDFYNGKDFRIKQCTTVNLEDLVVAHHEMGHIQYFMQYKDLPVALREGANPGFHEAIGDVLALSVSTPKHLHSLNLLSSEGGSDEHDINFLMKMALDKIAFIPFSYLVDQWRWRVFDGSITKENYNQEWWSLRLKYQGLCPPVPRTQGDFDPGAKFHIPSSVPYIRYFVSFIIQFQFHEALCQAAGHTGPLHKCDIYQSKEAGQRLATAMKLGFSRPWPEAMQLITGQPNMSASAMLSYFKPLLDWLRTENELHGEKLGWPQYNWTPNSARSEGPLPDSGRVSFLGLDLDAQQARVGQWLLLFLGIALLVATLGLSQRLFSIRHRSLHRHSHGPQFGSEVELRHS

## Nc1c(Br)cc(Br)cc1CN[C@H]1CC[C@H](O)CC1 [AMB, 4-[(2-amino-3,5-dibromophenyl)methylamino]cyclohexan-1-ol; hydrochloride]
[1]; 0.1 uM
  ACE2 Exopeptidase Activity: Percent Activity: 148.7%
  inhibition at 0.1 µM: -48.7%
[1]; 1 uM
  ACE2 Exopeptidase Activity: Percent Activity: 152.3%
  inhibition at 1 µM: -52.3%
[1]; 10 uM
  ACE2 Exopeptidase Activity: Percent Activity: 159.9%
  inhibition at 10 µM: -59.9%
[1]; 50 uM
  ACE2 Exopeptidase Activity: Percent Activity: 157.1%
  inhibition at 50 µM: -57.1%
[1]; 100 uM
  ACE2 Exopeptidase Activity: Percent Activity: 156.9%
  inhibition at 100 µM: -56.9%
[1]; 250 uM
  ACE2 Exopeptidase Activity: Percent Activity: 144.7%
  inhibition at 250 µM: -44.7%
[1]; 500 uM
  ACE2 Exopeptidase Activity: Percent Activity: 141.0%
  inhibition at 500 µM: -41%
[1]
  effect on exopeptidase activity of rhACE2: did not inhibit
[2]; 500 μM, read-out: ACE activity remaining
  remaining activity at 500 µM: 100%
[2]
  effect on exopeptidase activity of ACE: did not inhibit the activity of ACE
[3]
  change of ACE1 expression: no changes
[4]
  change of ACE2 expression: no changes
[5]; Example C (Table 4)
  Conc. at Max. % Viability: 0.59 µM
  Conc. at Min. % Viability: 300 µM
  Min. Viability: 0.55%
[5]; Example C (Table 4), hydrochloride
  Max. Viability: 96% and 96.64%
[5]
  percent minimum viability: 113.95%
[6]
  Overall Gmean Days 1-4, E sgRNA, rectal swabs: 4.21 copies/swab
  Overall Gmean Days 1-4 higher than Group 3, E sgRNA, rectal swabs: 3 fold
  Peak viral load versus Group 3, N2 gRNA, rectal swabs: similar
  Peak viral replication load higher than Group 3, E sgRNA, rectal swabs: 6 fold
  SARS-CoV-2 genome load, N2 gRNA, lungs: 4.03E+09 copies/gram
  SARS-CoV-2 genome load, N2 gRNA, trachea: 6.24E+08 copies/gram
  active replication load higher than Group 3, E sgRNA, lungs: 2 fold
  active replication load, E sgRNA, lungs: 2.78E+07 copies/gram
  active replication load, E sgRNA, nasal turbinate: 1.09E+08 copies/gram
  active replication load, E sgRNA, trachea: 1.11E+06 copies/gram
  genome load higher than Group 3, N2 gRNA, lungs: 2 fold
  replication load higher than Group 3, E sgRNA, trachea: similar
  viral load higher than Group 3, N2 gRNA, trachea: similar
  serum IL-6 levels versus Group 3: significantly lower
  serum TNF-α versus Group 3: significantly low
  serum IL-10 levels between groups: No significance difference
  incidence and severity of microscopic lesions versus vehicle control: similar
  lung viral load by TCID50 assay versus vehicle control: No difference
  SARS-CoV-2 genome load, N2 gRNA, nasal turbinate: 3.57E+10 copies/gram
  gross lesions in the lung: reduced gross lesions in the lung
  Peak viral replication load, E sgRNA, rectal swabs: 20.15 copies/swab
  Peak viral replication load, E sgRNA, pharyngeal swabs: 2.79E+04 copies/swab
  Peak viral load, N2 gRNA, rectal swabs: 9.75E+04 copies/swab
[6]; in vivo
  tolerability of administered doses: tolerated the administered doses well
[6]; AMB 500, BHH 200 mg/kg/day PO
  Overall Gmean Days 1-4, E sgRNA, pharyngeal swabs: 1.89E+04 copies/swab
  Overall Gmean Days 1-4 lower than Group 3, E sgRNA, pharyngeal swabs: 5 fold
  Overall Gmean Days 1-4 viral load lower than Group 3, N2 gRNA, pharyngeal swabs: 4 fold
  Overall Gmean viral load Days 1-4, N2 gRNA, pharyngeal swabs: 4.93E+07 copies/swab
  Peak viral load lower than vehicle (Group 3), N2 gRNA, pharyngeal swabs: 16 fold
  Peak viral replication load lower than Group 3, E sgRNA, pharyngeal swabs: 34 fold
  Peak viral load, N2 gRNA, pharyngeal swabs: 9.01E+06 copies/swab
[7]; [8]
  CC50 at 72 h: > 30 µM
[7]; [9]
  CC50 at 72 h: 184 µM

## CN(Cc1cc(Br)cc(Br)c1N)C1CCCCC1 [BHH, Bromhexine hydrochloride]
[1]; 0.1 uM
  ACE2 Exopeptidase Activity: Percent Activity: 111.3%
  inhibition at 0.1 µM: -11.3%
[1]; 1 uM
  ACE2 Exopeptidase Activity: Percent Activity: 114.7%
  inhibition at 1 µM: -14.7%
[1]; 10 uM
  ACE2 Exopeptidase Activity: Percent Activity: 104.6%
  inhibition at 10 µM: -4.6%
[1]; 50 uM
  ACE2 Exopeptidase Activity: Percent Activity: 2.7%
  inhibition at 50 µM: 97.3%
[1]; 100 uM
  ACE2 Exopeptidase Activity: Percent Activity: −6.2%
  inhibition at 100 µM: 106%
[1]; 250 uM
  ACE2 Exopeptidase Activity: Percent Activity: −6.7%
  inhibition at 250 µM: 107%
[1]; 500 uM
  ACE2 Exopeptidase Activity: Percent Activity: −6.6%
  inhibition at 500 µM: 107%
[1]; read-out: IC50, exopeptidase function of ACE2
  IC50: 26 µM
[1]; hydrochloride
  effect on exopeptidase activity of rhACE2: completely inhibited
[2]
  effect on exopeptidase activity of ACE: inhibited; also recorded: showed activity against ACE1
[3]
  change of ACE1 expression: no changes
[4]; hydrochloride
  change of ACE2 expression: no changes
[4]; listed as BBH, hydrochloride
  change of ACE2 expression: does not affect
[5]
  percent minimum viability: 103.87%
[6]
  Overall Gmean Days 1-4, N2 gRNA, rectal swabs: 1.00E+05 copies/swab
  Overall Gmean Days 1-4 higher than Group 3, N2 gRNA, rectal swabs: 2 fold
  Peak viral load versus Group 3, N2 gRNA, rectal swabs: similar
  SARS-CoV-2 genome load, N2 gRNA, lungs: 6.20E+09 copies/gram
  SARS-CoV-2 genome load, N2 gRNA, trachea: 1.21E+09 copies/gram
  active replication load higher than Group 3, E sgRNA, lungs: 3 fold
  active replication load, E sgRNA, lungs: 4.41E+07 copies/gram
  active replication load, E sgRNA, nasal turbinate: 1.67E+08 copies/gram
  active replication load, E sgRNA, trachea: 2.58E+06 copies/gram
  genome load higher than Group 3, N2 gRNA, lungs: 3 fold
  replication load higher than Group 3, E sgRNA, trachea: 2 fold
  viral load higher than Group 3, N2 gRNA, trachea: 2 fold
  serum IL-6 levels versus Group 3: significantly lower
  serum TNF-α versus Group 3: significantly low
  serum IL-10 levels between groups: No significance difference
  incidence and severity of microscopic lesions versus vehicle control: similar
  lung viral load by TCID50 assay versus vehicle control: No difference
  SARS-CoV-2 genome load, N2 gRNA, nasal turbinate: 3.57E+10 copies/gram
  gross lesions in the lung: reduced gross lesions in the lung
  Peak viral replication load, E sgRNA, rectal swabs: 4.29 copies/swab
  Peak viral replication load, E sgRNA, pharyngeal swabs: 2.65E+05 copies/swab
  Peak viral load, N2 gRNA, rectal swabs: 1.54E+05 copies/swab
[6]; AMB 500, BHH 200 mg/kg/day PO
  Overall Gmean Days 1-4, E sgRNA, pharyngeal swabs: 4.82E+04 copies/swab
  Overall Gmean Days 1-4 lower than Group 3, E sgRNA, pharyngeal swabs: 2 fold
  Overall Gmean Days 1-4 viral load lower than Group 3, N2 gRNA, pharyngeal swabs: 2 fold
  Overall Gmean viral load Days 1-4, N2 gRNA, pharyngeal swabs: 4.93E+07 copies/swab
  Peak viral load lower than vehicle (Group 3), N2 gRNA, pharyngeal swabs: 3 fold
  Peak viral replication load lower than Group 3, E sgRNA, pharyngeal swabs: 4 fold
  Peak viral load, N2 gRNA, pharyngeal swabs: 4.93E+07 copies/swab
[6]; AMB 500, BHH 200 mg/kg/day PO, up to 5 days
  tolerability of administered doses: tolerated the administered doses well
[7]; [8]
  CC50 at 72 h: > 30 µM
[7]; [9]
  CC50 at 72 h: 58.3 µM
